This note sets out measurements from US8501781B2 (priority 2009, dated 2013).

This data set can be described thus: logP by HPLC (EEC Directive 79/831 Annex V.A8). The class given is physicochemical.
Where [1] appears, read: [b] LC-MS, acidic range, pH 2.7, 0.1% aqueous formic acid and acetonitrile.
Where [2] appears, read: [c] LC-MS, neutral range, pH 7.8, 0.001 molar aqueous ammonium bicarbonate and acetonitrile.

Marks after values point to notes of the source that are not given here.

With `Cc1ccc(C)c(NC(=O)N2CCC(c3nc(C(=O)OC4CCCCC4)cs3)CC2)c1` [Example 59, Cyclohexyl 2-{1-[(2,5-dimethylphenyl)carbamoyl]piperidin-4-yl}-1,3-thiazole-4-carboxylate], the chromatographic logP (pH 2.7, given in the preparation examples, read-out: log P (pH 2.7)) was found to be 3.82.
Consider `O=C(OC1CCCCC1)c1csc(C2CCN(C(=O)C(=O)c3ccco3)CC2)n1` [Example 60], for which, under setting [1], the logP is 3.07^[b].
As for `O=C(OC1CCCCC1)c1csc(C2CCN(C(=O)Nc3cc(C(F)(F)F)ccc3Cl)CC2)n1` [Example 61], the logP under setting [1] was 4.76^[b].
The same measure, in the same setting: to `Cc1ccc(Cl)c(NC(=O)N2CCC(c3nc(C(=O)OC4CCCCC4)cs3)CC2)c1` [Example 62] belongs 4.30^[b].
The same measure, in the same setting: to `Cc1ccc(C)c(NC(=S)N2CCC(c3nc(C(=O)OC4CCCCC4)cs3)CC2)c1` [Example 63] belongs 4.17^[b]; to `Cc1ccc(F)c(NC(=O)N2CCC(c3nc(C(=O)OC4CCCCC4)cs3)CC2)c1` [Example 64], 3.81^[b].
On to `Cc1cc(C)cc(CC(=O)N2CCC(c3nc(C(=O)OC4CCCCC4)cs3)CC2)c1` [Example 65], for which the logP under setting [1] worked out at 4.32 and the logP under setting [2] was 4.34.
The like results for `Cc1ccc(CC(=O)N2CCC(c3nc(C(=O)OC4CCCCC4)cs3)CC2)c(C)c1` [Example 66] were, in that order, 4.3 and 4.33.
For `O=C(OC1CCCCC1)c1csc(C2CCN(C(=S)Nc3cc(F)ccc3F)CC2)n1` [Example 67], the logP under setting [1] was 3.86^[b].
For the compound `O=C(OC1CCCc2ccccc21)c1csc(C2(F)CCN(C(=O)Cn3nc(C(F)F)cc3C(F)F)CC2)n1` (centres unmarked) [Example 68], under setting [1], the logP is 4.12^[b].
On the same count and under the same terms, to `O=C(OC1CCCCC1)c1csc(C2(F)CCN(C(=O)Cn3nc(C(F)F)cc3C(F)F)CC2)n1` [Example 69] belongs 3.91^[b]; to `COc1ccc(C)cc1NC(=O)N1CCC(c2nc(C(=O)OC3CCCCC3)cs2)CC1` [Example 71], 4.18^[b].
Still for that read-out and setting: the value for `Cc1ccc(Cl)cc1NC(=O)N1CCC(c2nc(C(=O)OC3CCCCC3)cs2)CC1` [Example 72] was 4.10^[b]; that for `Cc1noc(C)c1NC(=S)N1CCC(c2nc(C(=O)OC3CCCCC3)cs2)CC1` [Example 73] was 3.18^[b].
The same measure, in the same setting: the value for `Cc1ccc(F)cc1NC(=O)N1CCC(c2nc(C(=O)OC3CCCCC3)cs2)CC1` [Example 74] was 3.74^[b]; that for `COc1ccc(Cl)cc1NC(=O)N1CCC(c2nc(C(=O)OC3CCCCC3)cs2)CC1` [Example 75] was 4.35^[b].
Consider `Cc1noc(C)c1NC(=O)N1CCC(c2nc(C(=O)OC3CCCCC3)cs2)CC1` [Example 76], for which the logP under setting [1] was 2.66^[b].
On the same count and under the same terms, to `COc1ccc(OC)c(NC(=O)N2CCC(c3nc(C(=O)OC4CCCc5ccccc54)cs3)CC2)c1` (centres unmarked) [Example 77] belongs 4.05^[b]; to `Cc1ccc(C)c(NC(=O)N2CCC(c3nc(C(=O)OC4CCCc5ccccc54)cs3)CC2)c1` (centres unmarked) [Example 78], 4.09^[b]; to `Cc1ccc(F)cc1NC(=O)N1CCC(c2nc(C(=O)OC3CCCc4ccccc43)cs2)CC1` (centres unmarked) [Example 79], 4.00^[b].
Same read-out and setting: to `Cc1ccc(F)c(NC(=O)N2CCC(c3nc(C(=O)OC4CCCc5ccccc54)cs3)CC2)c1` (centres unmarked) [Example 80] belongs 4.08^[b].
Same read-out and setting: the value for `Cc1ccc(C)c(NC(=S)N2CCC(c3nc(C(=O)OC4CCCc5ccccc54)cs3)CC2)c1` (centres unmarked) [Example 81] was 4.39^[b]; that for `COc1ccc(C)cc1NC(=O)N1CCC(c2nc(C(=O)OC3CCCc4ccccc43)cs2)CC1` (centres unmarked) [Example 82] was 4.33^[b].
As to `O=C(OC1CCCCC1)c1csc(C2CCN(C(=O)CC3CCCC3)CC2)n1` [Example 83], the log partition coefficient (logP) is given as 4.15 under setting [1] and 4.12 under setting [2].
For the compound `O=C(OCc1ccccc1Br)c1csc(C2CCN(C(=O)Nc3cc(F)ccc3F)CC2)n1` [Example 84], the logP under setting [1] is 3.79^[c]; 3.79^[b] and the logP under setting [2] was 3.79^[c]; 3.79^[b].
For `Cc1ccc(Cl)cc1NC(=O)N1CCC(c2nc(C(=O)OCc3ccccc3Br)cs2)CC1` [Example 85], the logP runs as follows: under setting [1], 4.04; under setting [2], 4.06.
The like results for `Cc1cc(CC(=O)N2CCC(c3nc(C(=O)OC4CCCCC4)cs3)CC2)n(C)n1` [Example 86] were, in that order, 2.6 and 2.67.
In the case of `O=C(OCc1ccccc1Br)c1csc(C2CCN(C(=O)Cc3cc(Cl)ccc3Cl)CC2)n1` [Example 87], the logP reads like this: under setting [1], 4.41; under setting [2], 4.44.
Taken in the same sequence, the figures for `Cc1ccc(C)c(NC(=S)N2CCC(c3nc(C(=O)OCc4ccccc4Br)cs3)CC2)c1` [Example 88] were 3.68 and 3.71.
The like results for `Cc1cc(CC(=O)N2CCC(c3nc(C(=O)OC4CCCCC4)cs3)CC2)nn1C` [Example 89] were, in that order, 2.66 and 2.68.
Taken in the same sequence, the figures for `Cc1ccc(F)cc1NC(=O)N1CCC(c2nc(C(=O)OCc3ccccc3Br)cs2)CC1` [Example 90] were 3.77 and 3.75.
Take `Cc1ccc(C)c(NC(=O)N2CCC(c3nc(C(=O)OCc4ccccc4Br)cs3)CC2)c1` [Example 91]: the logP by setting is: under setting [1], 3.86; under setting [2], 3.84.
The like results for `Cc1ccc(F)c(NC(=O)N2CCC(c3nc(C(=O)OCc4ccccc4Br)cs3)CC2)c1` [Example 92] were, in that order, 3.85 and 3.83.
Regarding `COc1ccc(OC)c(NC(=O)N2CCC(c3nc(C(=O)OC4CCCCC4)cs3)CC2)c1` [Example 93], under setting [1], the logP was 3.76^[b].
The same measure, in the same setting: to `Cc1ccc([N+](=O)[O-])cc1NC(=O)N1CCC(c2nc(C(=O)OC3CCCCC3)cs2)CC1` [Example 94] belongs 3.62^[b]; to `O=C(OC1CCCc2ccccc21)c1csc(C2CCN(C(=O)Nc3cc(Cl)ccc3Cl)CC2)n1` (centres unmarked) [Example 95], 4.92^[b].
For the compound `Cc1ccc(C)c(CC(=O)N2CCC(c3nc(C(=O)OC4CCCc5ccccc54)cs3)CC2)c1` (centres unmarked) [Example 96], the logP under setting [1] is 4.54^[b].
The same measure, in the same setting: to `COc1ccc(Cl)cc1NC(=O)N1CCC(c2nc(C(=O)OC3CCCc4ccccc43)cs2)CC1` (centres unmarked) [Example 97] belongs 4.64^[b].
For the compound `Cc1noc(C)c1NC(=O)N1CCC(c2nc(C(=O)OC3CCCc4ccccc43)cs2)CC1` (centres unmarked) [Example 98], the logP under setting [1] is 2.97^[b].
With `O=C(OC1CCCc2ccccc21)c1csc(C2CCN(C(=O)Cc3cc(Cl)ccc3Cl)CC2)n1` (centres unmarked) [Example 99], under setting [1], the logP was 4.73^[b].
Take `Cc1ccc(Cl)c(NC(=O)N2CCC(c3nc(C(=O)OC4CCCc5ccccc54)cs3)CC2)c1` (centres unmarked) [Example 100]: the logP under setting [1] is 4.61^[b].
In the case of `O=C(OCc1ccccc1Br)c1csc(C2CCN(C(=O)Cc3cc(Br)ccc3Br)CC2)n1` [Example 101], the log partition coefficient (logP) reads like this: under setting [1], 4.68; under setting [2], 4.64.
As for `Cc1ccc(C)c(CC(=O)N2CCC(c3nc(C(=O)OCc4ccccc4Br)cs3)CC2)c1` [Example 102], the logP reads like this: under setting [1], 4.23; under setting [2], 4.27.
The like results for `COc1ccc(OC)c(NC(=O)N2CCC(c3nc(C(=O)OCc4ccccc4Br)cs3)CC2)c1` [Example 103] were, in that order, 3.83 and 3.81.
The like results for `COc1ccc(C)cc1NC(=O)N1CCC(c2nc(C(=O)OCc3ccccc3Br)cs2)CC1` [Example 104] were, in that order, 4.08 and 4.12.
As for `COc1ccc(Cl)cc1NC(=O)N1CCC(c2nc(C(=O)OCc3ccccc3Br)cs2)CC1` [Example 105], the logP runs as follows: under setting [1], 4.35; under setting [2], 4.36.
The like results for `O=C(OCc1ccccc1Br)c1csc(C2CCN(C(=O)Nc3cc(C(F)(F)F)ccc3Cl)CC2)n1` [Example 106] were, in that order, 4.7 and 4.75.
The like results for `Cc1ccc(Cl)c(NC(=O)N2CCC(c3nc(C(=O)OCc4ccccc4Br)cs3)CC2)c1` [Example 107] were, in that order, 4.28 and 4.33.
The like results for `O=C(OCc1ccccc1Br)c1csc(C2CCN(C(=O)Nc3cc(Cl)ccc3Cl)CC2)n1` [Example 108] were, in that order, 4.56 and 4.61.
Take `Cn1nc(C(F)(F)F)cc1OC(=O)N1CCC(c2nc(C(=O)OC3CCCCC3)cs2)CC1` [Example 109]: the logP is reported as 4.36 under setting [1] and 4.37 under setting [2].
The like results for `Cc1ccc([N+](=O)[O-])cc1NC(=O)N1CCC(c2nc(C(=O)OCc3ccccc3Br)cs2)CC1` [Example 110] were, in that order, 3.69 and 3.70.
Taken in the same sequence, the figures for `O=C(OCc1ccccc1Br)c1csc(C2CCN(C(=O)Nc3cc(C(F)(F)F)ccc3F)CC2)n1` [Example 111] were 4.29^[c]; 4.29^[b] and 4.29^[c]; 4.29^[b].
Regarding `Cc1ccc(Cl)cc1NC(=S)N1CCC(c2nc(C(=O)OCc3ccccc3Br)cs2)CC1` [Example 112], the logP runs as follows: under setting [1], 4.3; under setting [2], 4.27.
The like results for `O=C(OCc1ccccc1Br)c1csc(C2CCN(C(=S)Nc3cc(Cl)ccc3Cl)CC2)n1` [Example 113] were, in that order, 4.4 and 4.39.
The like results for `O=C(OCc1ccccc1Br)c1csc(C2CCN(C(=S)Nc3cc(F)ccc3Br)CC2)n1` [Example 114] were, in that order, 4.04 and 4.02.
As to `O=C(OCc1ccccc1Br)c1csc(C2CCN(C(=S)Nc3cc(Cl)ccc3F)CC2)n1` [Example 115], the logP runs as follows: under setting [1], 4.15; under setting [2], 4.14.
Taken in the same sequence, the figures for `O=C(OCc1ccccc1Br)c1csc(C2CCN(C(=S)Nc3cc(F)ccc3F)CC2)n1` [Example 116] were 3.83 and 3.87.
The like results for `Cc1ccc(F)cc1NC(=S)N1CCC(c2nc(C(=O)OCc3ccccc3Br)cs2)CC1` [Example 117] were, in that order, 3.98^[c]; 3.98^[b] and 3.98^[c]; 3.98^[b].
With `O=C(OCc1ccccc1Br)c1csc(C2CCN(C(=S)Nc3cc(C(F)(F)F)ccc3F)CC2)n1` [Example 118], the logP stood at 4.34 under setting [1] and 4.37 under setting [2].
